Experimental findings from ChEMBL document CHEMBL1129358, “Esters and amides of 6-(chloromethyl)-2-oxo-2H-1-benzopyran-3-carboxylic acid as inhibitors of alpha-chymotrypsin: significance of the "aromatic" nature of the novel ester-type coumarin for strong inhibitory activity” (J Med Chem, 1996) are described below.

Test [1] deals with T1, Neutrophil elastase (Homo sapiens) (UniProt P08246).
T1 sequence (whole entry): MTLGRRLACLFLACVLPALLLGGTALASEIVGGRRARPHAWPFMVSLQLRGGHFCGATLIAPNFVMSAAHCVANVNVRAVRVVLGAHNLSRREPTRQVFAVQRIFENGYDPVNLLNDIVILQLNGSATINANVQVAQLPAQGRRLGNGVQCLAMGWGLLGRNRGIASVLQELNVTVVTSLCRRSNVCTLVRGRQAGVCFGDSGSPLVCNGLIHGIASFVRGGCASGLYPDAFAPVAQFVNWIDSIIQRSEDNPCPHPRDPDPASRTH
The test is described as follows: Ratio between k observed and KI of Human leukocyte elastase (HEL).

The target in test [2] is Chymotrypsinogen A (Bos taurus) (UniProt P00766). The test is described as follows: Ratio between k inactivation and KI of alpha-chymotrypsin.
The target in test [3] is T1, Neutrophil elastase (Homo sapiens). The test is described as follows: Ratio between k observed and KI of Human leukocyte elastase (HEL);[…].
The target in another test is Chymotrypsinogen A (Bos taurus, UniProt P00766). The test is described as follows: Compound was tested for the binding affinity against alpha-chymotrypsin.
Test [4] deals with Chymotrypsinogen A (Bos taurus) (UniProt P00766). Nature of the test: Compound was tested for the Inactivation of alpha-chymotrypsin.
Test [5] shares this target. Nature of the test: Ratio between k inactivation and KI of alpha-chymotrypsin; No inhibition.
In test [6] the test system is alpha-chymotrypsin (Bos taurus). Nature of the test: Ratio between k observed and KI of bovine alpha-chymotrypsin at 20 degree C.

Active and inactive are the calls of the source. No cut-off for these calls is given here.

Turning to `O=C(Oc1cccc(Cl)c1)c1cc2cc(CCl)ccc2oc1=O`, in test [1], the K obs / 1 was found to be 630 M⁻¹ s⁻¹. In test [2], the K inact/Ki worked out at 763000 M⁻¹ s⁻¹.
For orientation: Ki means a measure of affinity in units of concentration, obtained from inhibition or displacement. As to `C=CCOC(=O)c1cc2cc(CCl)ccc2oc1=O`, the “K obs / 1” value in test [3] is “inactive”. In addition, the affinity at Chymotrypsinogen A corresponds to a Ki of 33 µM. This compound also returned a K inact in test [4] of 0.014 s⁻¹. For the same compound, in test [2], the K inact/Ki was 424 M⁻¹ s⁻¹.
Consider `O=C(NCc1ccccc1)c1cc2cc(CCl)ccc2oc1=O`, for which, in test [1], the K obs / 1 came to 58 M⁻¹ s⁻¹. Besides, the K inact/Ki in test [2] is 24 M⁻¹ s⁻¹.
As to `Cc1ccc(OC(=O)c2cc3cc(CCl)ccc3oc2=O)cc1`, the “K obs / 1” value in test [3] was “inactive”. In addition, the K inact/Ki in test [2] worked out at 685 M⁻¹ s⁻¹.
Taken in the same sequence, the figures for `O=C(NCCc1ccccc1)c1cc2cc(CCl)ccc2oc1=O` were “inactive” and 6 M⁻¹ s⁻¹.
As for `CC(C)OC(=O)c1cc2cc(CCl)ccc2oc1=O`, the “K obs / 1” value in test [3] is “inactive”. The same compound had an inhibition constant Ki on Chymotrypsinogen A of 16 µM. In test [4], this compound yielded a K inact of 0.011 s⁻¹. For the same compound, the K inact/Ki in test [2] turned out to be 687 M⁻¹ s⁻¹.
As for `CCCCCCCCOC(=O)c1cc2cc(CCl)ccc2oc1=O`, the “K obs / 1” value in test [3] is “inactive”. In addition, the K inact/Ki in test [2] worked out at 190 M⁻¹ s⁻¹.
Consider `CCOC(=O)c1cc2cc(CCl)ccc2oc1=O`, for which, in test [3], the “K obs / 1” value is “inactive”. The Ki on Chymotrypsinogen A came out at 59 µM. Also, the K inact in test [4] came out at 0.013 s⁻¹. Moreover, in test [2], the K inact/Ki was found to be 220 M⁻¹ s⁻¹.
For `O=C(Oc1ccc(I)cc1)c1cc2cc(CCl)ccc2oc1=O`, in test [3], the “K obs / 1” value was “inactive”. Also, the K inact/Ki in test [2] came out at 1780 M⁻¹ s⁻¹.
Consider `O=C(Oc1ccccc1)c1cc2cc(CCl)ccc2oc1=O`, for which the K obs / 1 in test [1] came to 23 M⁻¹ s⁻¹. Further, the Ki on Chymotrypsinogen A was found to be 0.34 µM. This compound showed a K inact in test [4] of 0.034 s⁻¹. For the same compound, the K inact/Ki in test [2] came to 100000 M⁻¹ s⁻¹.
With `C=CCNC(=O)c1cc2cc(CCl)ccc2oc1=O`, in test [3], the “K obs / 1” value was “inactive”. In test [2], the K inact/Ki was found to be 80 M⁻¹ s⁻¹.
Taken in the same sequence, the figures for `O=C(OCc1ccccc1)c1cc2cc(CCl)ccc2oc1=O` were “inactive” and 186 M⁻¹ s⁻¹.
On to `CC(C)NC(=O)c1cc2cc(CCl)ccc2oc1=O`, for which the “K obs / 1” value in test [3] is “inactive”. Also, the “K inact/Ki” value in test [5] was “inactive”.
For the compound `O=C(Oc1ccc(Cl)cc1)c1cc2cc(CCl)ccc2oc1=O`, the “K obs / 1” value in test [3] was “inactive”. Also, the K inact/Ki in test [2] amounted to 330 M⁻¹ s⁻¹.
Consider `O=c1ccc2cc(CBr)ccc2o1`, for which, in test [6], the K obs / 1 is 12.5 M⁻¹ s⁻¹.
`COC(=O)c1cc2cc(CCl)ccc2oc1=O`: the “K obs / 1” value in test [3] was “inactive”. Moreover, the K inact/Ki in test [2] was determined as 110 M⁻¹ s⁻¹.
For `O=C(Oc1cccc(I)c1)c1cc2cc(CCl)ccc2oc1=O`, the K obs / 1 in test [1] worked out at 85 M⁻¹ s⁻¹. Also, the K inact/Ki in test [2] turned out to be 72100 M⁻¹ s⁻¹.
`Cc1ccc2oc(=O)c(C(=O)Oc3ccccc3)cc2c1`: the K obs / 1 in test [1] came out at 330 M⁻¹ s⁻¹. The “K inact/Ki” value in test [5] was “inactive”.
On to `CCCCCNC(=O)c1cc2cc(CCl)ccc2oc1=O`, for which the “K obs / 1” value in test [3] was “inactive”. Moreover, in test [5], the “K inact/Ki” value is “inactive”.
Regarding `CCCCCCCCCCNC(=O)c1cc2cc(CCl)ccc2oc1=O`, in test [3], the “K obs / 1” value was “inactive”.
As for `CCCCCOC(=O)c1cc2cc(CCl)ccc2oc1=O`, the “K obs / 1” value in test [3] was “inactive”. Further, in test [2], the K inact/Ki amounted to 12 M⁻¹ s⁻¹.
As for `O=C(O)c1cc2cc(CCl)ccc2oc1=O`, the “K obs / 1” value in test [3] was “inactive”. For the same compound, the “K inact/Ki” value in test [5] was “inactive”.
As to `COC(=O)C(Cc1ccccc1)NC(=O)c1cc2cc(CCl)ccc2oc1=O` (stereo unspecified), the “K obs / 1” value in test [3] was “inactive”. For the same compound, the K inact/Ki in test [2] came out at 80 M⁻¹ s⁻¹.
For `Cc1cccc(OC(=O)c2cc3cc(CCl)ccc3oc2=O)c1` the same measures were “inactive” and 71800 M⁻¹ s⁻¹.
For the compound `CNC(=O)c1cc2cc(CCl)ccc2oc1=O`, in test [3], the “K obs / 1” value is “inactive”. The “K inact/Ki” value in test [5] was “inactive”.
With `Cc1cc(OC(=O)c2cc3cc(CCl)ccc3oc2=O)ccc1Cl`, the K obs / 1 in test [1] was found to be 90 M⁻¹ s⁻¹. In addition, the K inact/Ki in test [2] worked out at 7550 M⁻¹ s⁻¹.
For the compound `O=C(Oc1cccc([N+](=O)[O-])c1)c1cc2cc(CCl)ccc2oc1=O`, in test [1], the K obs / 1 turned out to be 500 M⁻¹ s⁻¹. The K inact/Ki in test [2] is 11300 M⁻¹ s⁻¹.
With `O=C(Oc1ccccc1I)c1cc2cc(CCl)ccc2oc1=O`, the K obs / 1 in test [1] stood at 85 M⁻¹ s⁻¹. Also, the Ki at Chymotrypsinogen A was determined as 0.25 µM. Moreover, in test [4], the K inact is 0.02 s⁻¹. The K inact/Ki in test [2] was determined as 80000 M⁻¹ s⁻¹.
In the case of `Cc1ccccc1OC(=O)c1cc2cc(CCl)ccc2oc1=O`, the “K obs / 1” value in test [3] is “inactive”. This compound also gave a Ki on Chymotrypsinogen A of 0.38 µM. This compound also returned a K inact in test [4] of 0.043 s⁻¹. In addition, in test [2], the K inact/Ki was 114000 M⁻¹ s⁻¹.
In the case of `COC(=O)CNC(=O)c1cc2cc(CCl)ccc2oc1=O`, the “K obs / 1” value in test [3] was “inactive”. The K inact/Ki in test [2] came out at 12 M⁻¹ s⁻¹.
With `O=C(Oc1ccccc1Cl)c1cc2cc(CCl)ccc2oc1=O`, in test [1], the K obs / 1 was 23 M⁻¹ s⁻¹. At Chymotrypsinogen A, the affinity corresponds to a Ki of 0.79 µM. The compound further had a K inact in test [4] of 0.038 s⁻¹. Besides, in test [2], the K inact/Ki was 48100 M⁻¹ s⁻¹.
Turning to `O=C(Nc1ccccc1)c1cc2cc(CCl)ccc2oc1=O`, the “K obs / 1” value in test [3] is “inactive”. Further, the K inact/Ki in test [2] stood at 32 M⁻¹ s⁻¹.
